Measurements published in ChEMBL document CHEMBL1140541, “Potent 2'-aminoanilide inhibitors of cFMS as potential anti-inflammatory agents” (Bioorg Med Chem Lett, 2007).

What was measured:
[1] = target: T1, Macrophage colony-stimulating factor 1 receptor (Homo sapiens, UniProt P07333); experiment: Inhibition of ATP-induced autophosphorylation of cFMS tyrosine kinase
[2] = target: T1, Macrophage colony-stimulating factor 1 receptor; experiment: Inhibition of ATP-induced autophosphorylation of cFMS tyrosine kinase in HEK 293 cells; format: cell-based, HEK293
[3] = Metabolic stability in human liver microsomes after 10 mins; format: ADME, Microsome; conditions: read-out: Stability

T1 sequence (P07333 whole entry): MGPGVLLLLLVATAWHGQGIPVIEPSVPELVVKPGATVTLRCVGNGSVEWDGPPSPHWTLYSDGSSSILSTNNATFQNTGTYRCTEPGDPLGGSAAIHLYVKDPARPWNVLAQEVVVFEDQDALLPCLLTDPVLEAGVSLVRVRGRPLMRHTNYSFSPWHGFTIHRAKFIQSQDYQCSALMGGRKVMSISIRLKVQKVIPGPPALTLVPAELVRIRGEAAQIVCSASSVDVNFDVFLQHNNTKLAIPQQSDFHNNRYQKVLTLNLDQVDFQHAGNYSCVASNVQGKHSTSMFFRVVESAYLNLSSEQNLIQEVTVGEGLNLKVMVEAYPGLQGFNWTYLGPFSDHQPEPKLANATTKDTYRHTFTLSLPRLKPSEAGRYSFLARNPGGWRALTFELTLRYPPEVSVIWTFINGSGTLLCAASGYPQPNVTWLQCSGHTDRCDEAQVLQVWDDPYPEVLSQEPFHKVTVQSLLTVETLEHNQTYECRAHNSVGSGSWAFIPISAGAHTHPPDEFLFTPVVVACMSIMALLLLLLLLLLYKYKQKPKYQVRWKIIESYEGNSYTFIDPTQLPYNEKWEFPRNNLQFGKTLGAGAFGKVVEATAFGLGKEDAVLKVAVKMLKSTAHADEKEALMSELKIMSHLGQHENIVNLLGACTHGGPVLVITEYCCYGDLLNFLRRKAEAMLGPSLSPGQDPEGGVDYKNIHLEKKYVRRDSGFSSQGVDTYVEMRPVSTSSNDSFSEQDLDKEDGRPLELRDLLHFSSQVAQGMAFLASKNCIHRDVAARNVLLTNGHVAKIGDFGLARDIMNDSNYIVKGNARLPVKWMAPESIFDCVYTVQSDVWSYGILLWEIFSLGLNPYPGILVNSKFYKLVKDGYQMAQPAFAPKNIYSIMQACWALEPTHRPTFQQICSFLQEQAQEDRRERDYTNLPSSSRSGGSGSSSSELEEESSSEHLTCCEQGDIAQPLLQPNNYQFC

IC50 [1]	IC50 [2]	remaining at 10 min [3]	SMILES
> 10000 nM	–	–	O=C(Nc1ccccc1N1CCCCC1)c1ccc(Nc2ccccc2)o1
4400 nM	–	–	O=C(Nc1ccccc1N1CCCCC1)c1ccc(Br)o1
> 10000 nM	–	–	NC(=O)c1ccc(C(=O)Nc2ccccc2N2CCCCC2)o1
37 nM	330 nM	–	N#Cc1ccc(C(=O)Nc2cc(C=O)ccc2N2CCCCC2)o1
> 10000 nM	–	–	O=C(Nc1ccccc1Nc1ccccc1)c1ccc([N+](=O)[O-])o1
> 10000 nM	–	–	CCCN(CC)c1ccccc1NC(=O)c1ccc([N+](=O)[O-])o1
17 nM	76 nM	–	N#Cc1ccc(C(=O)Nc2cc(N3CCCCC3)ccc2N2CCCCC2)o1
–	–	83%	CC1CCN(c2ccc(CO)cc2NC(=O)c2ccc(C#N)o2)CC1
1900 nM	–	–	O=C(Nc1ccccc1N1CCCCC1)c1ccc(Cl)o1
34 nM	2600 nM	–	N#Cc1ccc(C(=O)Nc2cc(CN=C(N)N)ccc2N2CCCCC2)o1
> 10000 nM	–	–	CCCN(CCC)c1ccccc1NC(=O)c1ccc([N+](=O)[O-])o1
> 10000 nM	–	–	O=C(Nc1ccccc1N1CCCCC1)c1ccc(-c2ccccc2)o1
1900 nM	–	–	O=C(Nc1ccccc1N1CCCC1)c1ccc([N+](=O)[O-])o1
1100 nM	–	–	O=Cc1ccc(C(=O)Nc2ccccc2N2CCCCC2)o1
> 2000 nM	> 2000 nM	–	N#Cc1ccc(C(=O)Nc2cc(C(=O)O)ccc2N2CCCCC2)o1
5300 nM	–	–	CC1CC(C)CN(c2ccccc2NC(=O)c2ccc([N+](=O)[O-])o2)C1 (stereo unspecified)
19 nM	170 nM	–	N#Cc1ccc(C(=O)Nc2cc(COCC(O)CO)ccc2N2CCCCC2)o1 (stereo unspecified)
36 nM	370 nM	–	N#Cc1ccc(C(=O)Nc2ccccc2N2CCCCC2)o1
25 nM	190 nM	25%	N#Cc1ccc(C(=O)Nc2cc(CO)ccc2N2CCCCC2)o1
140 nM	370 nM	–	O=C(Nc1ccccc1N1CCC(O)CC1)c1ccc([N+](=O)[O-])o1
380 nM	2200 nM	–	CC1CCCN(c2ccccc2NC(=O)c2ccc([N+](=O)[O-])o2)C1 (stereo unspecified)

IC50 [1]	IC50 [2]	remaining at 10 min [3]	SMILES
720 nM	–	–	CC1CCCCN1c1ccccc1NC(=O)c1ccc([N+](=O)[O-])o1 (stereo unspecified)
–	–	41%	O=C(Nc1ccccc1N1CCCCC1)c1ccc([N+](=O)[O-])o1
> 10000 nM	–	–	O=C(Nc1ccccc1N1CCC(O)C1)c1ccc([N+](=O)[O-])o1 (stereo unspecified)
> 10000 nM	–	–	O=C(Nc1ccccc1N1CCC(CO)C1)c1ccc([N+](=O)[O-])o1 (stereo unspecified)
200 nM	3100 nM	–	N#Cc1ccc(C(=O)Nc2cc(CN)ccc2N2CCCCC2)o1
90 nM	960 nM	–	COc1ccc(N2CCCCC2)c(NC(=O)c2ccc(C#N)o2)c1
> 10000 nM	–	–	O=C(O)c1ccc(C(=O)Nc2ccccc2N2CCCCC2)o1
47 nM	180 nM	–	O=C(Nc1ccccc1N1CCCCC1)c1cc([N+](=O)[O-])c[nH]1
17 nM	2700 nM	–	N#Cc1ccc(C(=O)Nc2cc(O)ccc2N2CCCCC2)o1
43 nM	230 nM	–	O=C(Nc1ccccc1N1CCC(CCO)CC1)c1ccc([N+](=O)[O-])o1
> 10000 nM	–	–	O=C(Nc1ccccc1N1CCC1)c1ccc([N+](=O)[O-])o1
1100 nM	–	–	O=C(Nc1ccccc1N1CCOCC1)c1ccc([N+](=O)[O-])o1
> 10000 nM	–	–	O=C(Nc1ccccc1N1CCNCC1)c1ccc([N+](=O)[O-])o1
> 10000 nM	–	–	O=C(Nc1ccccc1N1CCCCC1)c1ccco1
> 10000 nM	–	–	O=C(Nc1ccccc1N1CCN(c2ccccc2)CC1)c1ccc([N+](=O)[O-])o1
> 10000 nM	–	–	O=C(Nc1ccccc1N1CCCCC1)c1ccc(C(F)(F)F)o1
130 nM	1400 nM	–	O=C(Nc1ccccc1N1CCC(CO)CC1)c1ccc([N+](=O)[O-])o1
78 nM	300 nM	100%	CC1CCN(c2ccccc2NC(=O)c2ccc([N+](=O)[O-])o2)CC1
37 nM	310 nM	–	CS(=O)(=O)NCc1ccc(N2CCCCC2)c(NC(=O)c2ccc(C#N)o2)c1
120 nM	750 nM	–	N#Cc1ccc(N2CCCCC2)c(NC(=O)c2ccc(C#N)o2)c1
> 10000 nM	–	–	Nc1ccc(C(=O)Nc2ccccc2N2CCCCC2)o1

SMILES	IC50 [1]	IC50 [2]	remaining at 10 min [3]
N#Cc1c[nH]c(C(=O)Nc2ccccc2N2CCCCC2)c1	47 nM	150 nM	–
O=C(Nc1ccccc1N1C=CC=CC=C1)c1ccc([N+](=O)[O-])o1	260 nM	2000 nM	–
